In US20100324152A1, “USE OF 1,2-DECANEDIOL FOR SEBUM REDUCTION AND COSMETIC AND/OR DERMATOLOGICAL FORMULATIONS COMPRISING 1,2-DECANEDIOL” (priority 2006, published 2010):

Legend:
[1] = Dropping point of a model sebum containing 1,2-decanediol (AOCS Cc 18-80/ASTM D 3954); type: physicochemical; settings: addition of 20 wt. % 1,2-decanediol to model sebum, versus 1,2-decanediol-free model sebum
Description: To check the extent to which 1,2-decanediol has a sebum-fluidizing property and is therefore capable of reducing the sebum concentration on the skin surface, and in particular in the sebaceous gland follicles, by a physical route, the influence of 1,2-decanediol on the dropping point of a model sebum was first investigated. On the basis of these publications, a model […] was developed which substantially comprises saturated and unsaturated free fatty acids, wax-like substances, triglycerides and cholesterol and, in detail, is composed of the following substances: palmitic acid, oleic acid, stearic acid, squalene, myristyl myristate, cetyl palmitate, tripalmitin, triolein and cholesterol. The exact quantitative composition of the model sebum (contents of the individual substances in per cent by weight; wt. %) can be seen from the following Table 1. [table] To investigate the influence of 1,2-decanediol on the physical properties of the model sebum, 20 wt. % 1,2-decanediol was added to the model sebum. The dropping points of the 1,2-decanediol-free model sebum and the model sebum sample containing 20 wt. % 1,2-decanediol were then determined using the method for dropping point determination according to AOCS Cc 18-80/ASTM D 3954.

P. acnes = settings: reported in EP 1 598 064 A1; cited from earlier work

CCCCCCCCC(O)CO (centres unmarked) [1,2-decanediol]
reduction of the dropping point of model sebum [1]: 12.7 °C
antibacterial action in the suspension test (P. acnes): as good as no antibacterial action
